Data: patent US10688084B2 (priority 2016, dated 2020)
Read-outs that look alike come from different tables or passages of the source.

Columns and labels:
Wistar rats [1] = assay type: in vivo
Procedure: In the study of analgesic properties of the formula I compound, were taken female and male Wistar rats aged 6-7 weeks with a body mass of 180-220 g. The number of animals in each group was 10.
[…] inflammation was modeled in rats by subplantar administration of 0.1 ml of a 1% solution of carrageenin (a sulfated polysaccharide from Irish sea moss) into the right hind paw. The substance was administered intragastrically using a gastric probe.
Inflammatory hyperalgesia (increased pain sensitivity of inflamed tissues in rats) was caused by carrageenin and was assessed by decrease of the pain sensitivity threshold—PST (by PST difference) to mechanical irritation (squeezing) of the paw tissue of the animal before the introduction of carrageenin and 3 hours after it. The measurement was performed on the inflamed paw. Used analgesimeter Ugo Basile S.R.L. (Italy) provides a gradual increased afterload on the rat's inflamed paw until a pain reaction appears (assessed by squeaking of animal or withdrawing the paw). The analyte was administered 2 h after carrageenin administration. […] An increase in the pain response threshold under the influence of the substances under study was expressed in an increase in the force of compression of the limb and characterized the intensity of the analgesic effect of the preparation. After the experiment, animals were euthanized by carbon dioxide inhalation method.
The introduction to rats was carried out in the amount of no more than 1 ml/100 g. The concentration of the resulting solution was 5 mg/ml.
(§1) To prepare a dose of 20 mg/kg, 40 ml of solution with a concentration of 5 mg/ml (50 mg/kg) were taken, transferred to a 100 ml measuring flask with accuracy class A, adjusted to 100 ml with 0.5% water solution of Tween-80 and the suspension was dispersed to a homogeneous consistency using a dispersant.
To prepare a dose of 10 mg/kg, 20 ml of solution with a concentration of 5 mg/ml (50 mg/kg) were taken, transferred to a 100 ml measuring flask with accuracy class A, adjusted to 100 ml with 0.5% aqueous solution of Tween-80 and the suspension was stirred to a homogeneous consistency with a magnetic stirrer MR Hei-Standard (Heidolph, Germany).
as §1, with “5” for “20”, “[…]” for “40”, “stirred” for “dispersed”, “with” for “using”, “magnetic stirrer.” for “dispersant.”

Wistar rats [2] = assay type: in vivo; remark: listed apart in the source
Procedure: In the study of antipyretic properties of the formula I compound, were taken female and male Wistar rats aged 6-7 weeks, with a body mass of 180-220 g. The number of animals in each group was 10.
The febrile reaction was caused by subcutaneous administration of a 20% suspension of baking yeast. The rectal temperature was measured with an electrothermometer prior to the introduction of yeast and 18 hours after it (the difference of these measurements is the estimated hyperthermic reaction). The preparation was administered to animals at the peak of hyperthermia once (after 18 hours). The antipyretic effect was evaluated by hyperthermia decrease 2 hours after the injection of the test substance, and then the effect dynamics was recorded at hourly intervals for 7 hours.
The introduction to rats was carried out in the amount of no more than 1 ml/100 g. The concentration of the resulting solution was 7.5 mg/ml.
The difference in temperature after preparation administration and after 18 hours of induction with yeast was taken as the parameter of hyperthermia decrease.
Animals were observed individually after administration throughout the study. […] Wilcoxon nonparametric criterion was used for statistical comparison of experimental groups. Differences were determined at the 0.05 level of significance. The statistical analysis was carried out using the R-studio program.

Structure (SMILES): COc1ccc2cc([C@H](C)C(=O)OCc3cnc(C)c(OC(=O)[C@@H](C)c4ccc5cc(OC)ccc5c4)c3COC(=O)[C@@H](C)c3ccc4cc(OC)ccc4c3)ccc2c1 [Compound of formula I, 3-((S)-2-(6-methoxynaphth-2-yl)propanoiloxy)-4,5-bis (((S)-2-(6-methoxinaphtht-2-yl)propanoiloxy)methyl)-2-methylpyridinium (S)-2-(6-methoxynaphth-2-yl) propanoate]
- Analgesic effect, total/analgesic effect (Wistar rats [1]; females, 5 mg/kg): 10/9
- Paw volume 0 hours (Wistar rats [1]; females, 5 mg/kg): 3.9 ± 1.4
- Paw volume 3 hours (Wistar rats [1]; females, 5 mg/kg): 7.2 ± 3.2
- Analgesic effect, % (Wistar rats [1]; females, 5 mg/kg, control = 100.0): 282.0 ± 125.9%
- Analgesic effect, total/analgesic effect (Wistar rats [1]; females, 10 mg/kg): 10/8
- Paw volume 0 hours (Wistar rats [1]; females, 10 mg/kg): 4.3 ± 2.2
- Paw volume 3 hours (Wistar rats [1]; females, 10 mg/kg): 10.5 ± 7.2
- Analgesic effect, % (Wistar rats [1]; females, 10 mg/kg, control = 100.0): 408.2 ± 279.3%
- Analgesic effect, total/analgesic effect (Wistar rats [1]; females, 20 mg/kg): 10/9
- Paw volume 0 hours (Wistar rats [1]; females, 20 mg/kg): 4.6 ± 3.3
- Paw volume 3 hours (Wistar rats [1]; females, 20 mg/kg): 9.1 ± 7.4
- Analgesic effect, % (Wistar rats [1]; females, 20 mg/kg, control = 100.0): 353.5 ± 289.7%
- Analgesic effect, total/analgesic effect (Wistar rats [1]; females, 50 mg/kg): 10/7
- Paw volume 0 hours (Wistar rats [1]; females, 50 mg/kg): 8.9 ± 5.7
- Paw volume 3 hours (Wistar rats [1]; females, 50 mg/kg): 12.4 ± 6.5
- Analgesic effect, % (Wistar rats [1]; females, 50 mg/kg, control = 100.0): 484.4 ± 251.8%
- Dose at which a pronounced anesthetic effect is exhibited (Wistar rats [1]; intragastric): 5 mg/kg
- Analgesic effect, total/analgesic effect (Wistar rats [1]; males, 5 mg/kg): 10/7
- Analgesic effect, total/analgesic effect (Wistar rats [1]; males, 10 mg/kg): 10/10
- Analgesic effect, total/analgesic effect (Wistar rats [1]; males, 20 mg/kg): 10/9
- Analgesic effect, total/analgesic effect (Wistar rats [1]; males, 50 mg/kg): 10/8
- Analgesic effect, % (Wistar rats [1]; rat, in vivo, 5 mg/kg): 259.9 ± 229.7%
- Paw volume 0 hours (Wistar rats [1]; rat, in vivo, 5 mg/kg): 4.4 ± 2.7
- Paw volume 3 hours (Wistar rats [1]; rat, in vivo, 5 mg/kg): 5.5 ± 2.5
- Analgesic effect, % (Wistar rats [1]; rat, in vivo, 10 mg/kg): 453.7 ± 159.9%
- Paw volume 0 hours (Wistar rats [1]; rat, in vivo, 10 mg/kg): 4.2 ± 2.4
- Paw volume 3 hours (Wistar rats [1]; rat, in vivo, 10 mg/kg): 12.0 ± 4.6
- Analgesic effect, % (Wistar rats [1]; rat, in vivo, 20 mg/kg): 418.1 ± 215.7%
- Paw volume 0 hours (Wistar rats [1]; rat, in vivo, 20 mg/kg): 6.4 ± 5.7
- Paw volume 3 hours (Wistar rats [1]; rat, in vivo, 20 mg/kg): 12.0 ± 6.2
- Analgesic effect, % (Wistar rats [1]; rat, in vivo, 50 mg/kg): 367.9 ± 220.1%
- Paw volume 0 hours (Wistar rats [1]; rat, in vivo, 50 mg/kg): 3.4 ± 2.3
- Paw volume 3 hours (Wistar rats [1]; rat, in vivo, 50 mg/kg): 10.6 ± 6.3
- Antipyretic action (Wistar rats [2]; 20 mg/kg, both males and females): no antipyretic action was observed
- Δ t after 2 hours, (M ± SD) (Wistar rats [2]; 20 mg/kg, females): −0.07
- Δ t after 3 hours, (M ± SD) (Wistar rats [2]; 20 mg/kg, females): −0.27
- Δ t after 4 hours, (M ± SD) (Wistar rats [2]; 20 mg/kg, females): −0.35
- Δ t after 5 hours, (M ± SD) (Wistar rats [2]; 20 mg/kg, females): 0.34
- Δ t after 6 hours, (M ± SD) (Wistar rats [2]; 20 mg/kg, females): −0.01
- Δ t after 7 hours, (M ± SD) (Wistar rats [2]; 20 mg/kg, females): −0.08
- Δ t after 2 hours, (M ± SD) (Wistar rats [2]; 20 mg/kg, males): 0.13
- Δ t after 3 hours, (M ± SD) (Wistar rats [2]; 20 mg/kg, males): 0.24
- Δ t after 4 hours, (M ± SD) (Wistar rats [2]; 20 mg/kg, males): 0.02
- Δ t after 5 hours, (M ± SD) (Wistar rats [2]; 20 mg/kg, males): 0.1
- Δ t after 6 hours, (M ± SD) (Wistar rats [2]; 20 mg/kg, males): −0.21
- Δ t after 7 hours, (M ± SD) (Wistar rats [2]; 20 mg/kg, males): 0.04
- Level of temperature decrease (Wistar rats [2]; 50 mg/kg, 3-4 hours after administration): 0.34-0.97 °C
- Δ t after 2 hours, (M ± SD) (Wistar rats [2]; 50 mg/kg, females): 0.87
- Δ t after 3 hours, (M ± SD) (Wistar rats [2]; 50 mg/kg, females): 0.91
- Δ t after 4 hours, (M ± SD) (Wistar rats [2]; 50 mg/kg, females): 0.66
- Δ t after 5 hours, (M ± SD) (Wistar rats [2]; 50 mg/kg, females): 0.53
- Δ t after 6 hours, (M ± SD) (Wistar rats [2]; 50 mg/kg, females): 0.61
- Δ t after 7 hours, (M ± SD) (Wistar rats [2]; 50 mg/kg, females): 0.5
- Temperature lower than before the introduction by (Wistar rats [2]; 50 mg/kg, females, 2 and 3 hours after introduction): 0.9 °C
- Temperature decrease (Wistar rats [2]; 50 mg/kg, females, 4, 5, 6 and 7 hours after introduction): 0.5-0.7 °C
- Δ t after 2 hours, (M ± SD) (Wistar rats [2]; 50 mg/kg, males): 0.22
- Δ t after 3 hours, (M ± SD) (Wistar rats [2]; 50 mg/kg, males): 0.36
- Δ t after 4 hours, (M ± SD) (Wistar rats [2]; 50 mg/kg, males): 0.39
- Δ t after 5 hours, (M ± SD) (Wistar rats [2]; 50 mg/kg, males): 0.25
- Δ t after 6 hours, (M ± SD) (Wistar rats [2]; 50 mg/kg, males): 0.11
- Δ t after 7 hours, (M ± SD) (Wistar rats [2]; 50 mg/kg, males): 0.09
- Δ t after 2 hours, (M ± SD) (Wistar rats [2]; 75 mg/kg, females): 0.9
- Δ t after 3 hours, (M ± SD) (Wistar rats [2]; 75 mg/kg, females): 0.96
- Δ t after 4 hours, (M ± SD) (Wistar rats [2]; 75 mg/kg, females): 1.39
- Δ t after 5 hours, (M ± SD) (Wistar rats [2]; 75 mg/kg, females): 1.52
- Δ t after 6 hours, (M ± SD) (Wistar rats [2]; 75 mg/kg, females): 1.51
- Δ t after 7 hours, (M ± SD) (Wistar rats [2]; 75 mg/kg, females): 1.17
- Δ t after 2 hours, (M ± SD) (Wistar rats [2]; 75 mg/kg, males): 0.76
- Δ t after 3 hours, (M ± SD) (Wistar rats [2]; 75 mg/kg, males): 1.15
- Δ t after 4 hours, (M ± SD) (Wistar rats [2]; 75 mg/kg, males): 1.38
- Δ t after 5 hours, (M ± SD) (Wistar rats [2]; 75 mg/kg, males): 1.31
- Δ t after 6 hours, (M ± SD) (Wistar rats [2]; 75 mg/kg, males): 0.96
- Δ t after 7 hours, (M ± SD) (Wistar rats [2]; 75 mg/kg, males): 0.92
- Temperature less than before the introduction for (Wistar rats [2]; 75 mg/kg, throughout the experiment): 0.76-1.5 °C
